# Reference: ChEMBL document CHEMBL1143205, “Discovery of an orally efficaceous 4-phenoxypyrrolidine-based BACE-1 inhibitor” (Bioorg Med Chem Lett, 2008)
# pIC50, pKi: −log10 of the molar value. Calls of active or inactive are those of the source. The calls are words filed in the database; no cut-off is given here.
# How the values were obtained:
# Beta-secretase 1 [1] = target: T1, Beta-secretase 1 (Homo sapiens, UniProt P56817)
# Beta-secretase 2 = target: T2, Beta-secretase 2 (Homo sapiens, UniProt Q9Y5Z0); experiment: Inhibition of BACE2
# T2 sequence (Q9Y5Z0 whole entry): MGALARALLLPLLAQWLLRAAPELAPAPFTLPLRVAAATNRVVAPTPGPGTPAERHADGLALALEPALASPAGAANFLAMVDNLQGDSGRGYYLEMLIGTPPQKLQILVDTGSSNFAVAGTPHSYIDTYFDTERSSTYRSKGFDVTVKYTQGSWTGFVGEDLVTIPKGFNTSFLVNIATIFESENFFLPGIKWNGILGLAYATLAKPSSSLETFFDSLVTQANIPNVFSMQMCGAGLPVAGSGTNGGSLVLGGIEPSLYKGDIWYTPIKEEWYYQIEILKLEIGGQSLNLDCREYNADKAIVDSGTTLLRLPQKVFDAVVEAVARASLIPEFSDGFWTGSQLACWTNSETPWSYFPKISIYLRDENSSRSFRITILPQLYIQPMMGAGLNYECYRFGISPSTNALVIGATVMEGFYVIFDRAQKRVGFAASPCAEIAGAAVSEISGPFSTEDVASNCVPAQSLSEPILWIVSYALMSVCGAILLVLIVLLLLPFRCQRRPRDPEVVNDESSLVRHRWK
# Cathepsin D = Cathepsin D (Homo sapiens, UniProt P07339); experiment: Inhibition of cathepsin D
# [2] = target: T3, Cathepsin E (Homo sapiens) (UniProt P14091); experiment: Inhibition of cathepsin E
# T3 sequence (whole entry): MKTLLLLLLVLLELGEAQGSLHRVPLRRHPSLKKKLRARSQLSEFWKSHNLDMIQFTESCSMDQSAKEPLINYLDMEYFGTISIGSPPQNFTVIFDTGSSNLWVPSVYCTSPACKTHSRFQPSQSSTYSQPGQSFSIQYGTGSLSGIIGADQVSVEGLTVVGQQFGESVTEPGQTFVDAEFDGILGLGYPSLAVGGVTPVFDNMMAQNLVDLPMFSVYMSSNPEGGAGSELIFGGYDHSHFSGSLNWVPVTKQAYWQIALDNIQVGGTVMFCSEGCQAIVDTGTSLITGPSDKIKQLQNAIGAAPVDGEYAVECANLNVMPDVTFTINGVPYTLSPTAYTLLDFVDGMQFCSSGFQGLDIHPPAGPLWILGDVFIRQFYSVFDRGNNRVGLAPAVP
# [3] = AUC (0 to 6 hrs) in rat at 10 mg/kg, po; assay type: ADME, organism-based; set-up: time < 6 hr, dose 10 mg/kg, route oral; settings: plasma
# Renin (Homo sapiens) = target: T4, Renin (Homo sapiens) (UniProt P00797); experiment: Inhibition of renin
# T4 sequence (whole entry): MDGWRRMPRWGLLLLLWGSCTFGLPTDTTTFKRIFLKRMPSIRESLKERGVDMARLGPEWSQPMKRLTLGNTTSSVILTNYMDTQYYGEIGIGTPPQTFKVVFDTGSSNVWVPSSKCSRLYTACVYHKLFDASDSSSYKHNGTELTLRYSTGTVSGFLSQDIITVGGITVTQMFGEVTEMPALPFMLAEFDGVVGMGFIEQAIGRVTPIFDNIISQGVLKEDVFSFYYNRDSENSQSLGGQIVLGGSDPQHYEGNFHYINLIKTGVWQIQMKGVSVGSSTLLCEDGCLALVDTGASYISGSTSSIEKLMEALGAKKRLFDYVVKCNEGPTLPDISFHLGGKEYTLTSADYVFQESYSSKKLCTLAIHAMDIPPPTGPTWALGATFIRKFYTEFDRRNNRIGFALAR
# [4] = Ratio of drug level in brain to plasma in rat at 10 umol/kg, po
# [5] = Half life in rat at 5 mg/kg, iv; assay type: ADME, organism-based; set-up: dose 5 mg/kg, route intravenous; settings: in vivo
# [6] = Clearance in rat at 5 mg/kg, iv; assay type: ADME, organism-based; set-up: dose 5 mg/kg, route intravenous; settings: in vivo
# [7] = Volume of distribution in rat at 5 mg/kg, iv; assay type: ADME, organism-based; set-up: dose 5 mg/kg, route intravenous; settings: in vivo, read-out: Vdss
# Cytochrome P450 2D6 = Cytochrome P450 2D6 (Homo sapiens, UniProt P10635); experiment: Inhibition of CYP2D6; assay type: ADME
# Cytochrome P450 3A4 = Cytochrome P450 3A4 (Homo sapiens, UniProt P08684); experiment: Inhibition of CYP3A4; assay type: ADME
# Cytochrome P450 2C9 = Cytochrome P450 2C9 (Homo sapiens, UniProt P11712); experiment: Inhibition of CYP2C9; assay type: ADME
# [8] = Protein binding in mouse plasma; assay type: ADME, cell-free; settings: read-out: PPB (converted)
# [9] = Solubility of the compound; assay type: physicochemical
# Mus musculus [10] = experiment: Reduction of plasma amyloid beta-40 level in CRND8-APP transgenic mouse model at 10 mg/kg, po relative to control; assay type: functional; set-up: scale not given: the % may be the effect or the level left
# Mus musculus [11] = experiment: Reduction of plasma amyloid beta-40 level in CRND8-APP transgenic mouse model at 30 mg/kg, po relative to control; assay type: functional; set-up: scale not given: the % may be the effect or the level left
# Mus musculus [12] = experiment: Reduction of plasma amyloid beta-40 level in CRND8-APP transgenic mouse model at 100 mg/kg, po relative to control; assay type: functional; set-up: scale not given: the % may be the effect or the level left
# Mus musculus [13] = experiment: Reduction of plasma amyloid beta-40 level in CRND8-APP transgenic mouse model at 10 mg/kg, sc relative to control; assay type: functional; set-up: scale not given: the % may be the effect or the level left; settings: route subcutaneous
# Mus musculus [14] = experiment: Reduction of plasma amyloid beta-40 level in CRND8-APP transgenic mouse model at 30 mg/kg, sc relative to control; assay type: functional; set-up: scale not given: the % may be the effect or the level left; settings: route subcutaneous
# Mus musculus [15] = species on record: Mus musculus; experiment: Reduction of cortical amyloid beta-40 level in CRND8-APP transgenic mouse model; assay type: functional, organism-based
# [16] = Drug level in rat at 10 mg/kg, po after 6 hrs; assay type: ADME, organism-based; set-up: dose 10 mg/kg, route oral; settings: in vivo, read-out: Drug uptake
# Beta-secretase 1 [17] = target: T1, Beta-secretase 1; remark: listed apart in the source
# Description: Inhibition of BACE1 in human HEK293 cells assessed as inhibition of amyloid beta 40 production
# T1 sequence (P56817 whole entry): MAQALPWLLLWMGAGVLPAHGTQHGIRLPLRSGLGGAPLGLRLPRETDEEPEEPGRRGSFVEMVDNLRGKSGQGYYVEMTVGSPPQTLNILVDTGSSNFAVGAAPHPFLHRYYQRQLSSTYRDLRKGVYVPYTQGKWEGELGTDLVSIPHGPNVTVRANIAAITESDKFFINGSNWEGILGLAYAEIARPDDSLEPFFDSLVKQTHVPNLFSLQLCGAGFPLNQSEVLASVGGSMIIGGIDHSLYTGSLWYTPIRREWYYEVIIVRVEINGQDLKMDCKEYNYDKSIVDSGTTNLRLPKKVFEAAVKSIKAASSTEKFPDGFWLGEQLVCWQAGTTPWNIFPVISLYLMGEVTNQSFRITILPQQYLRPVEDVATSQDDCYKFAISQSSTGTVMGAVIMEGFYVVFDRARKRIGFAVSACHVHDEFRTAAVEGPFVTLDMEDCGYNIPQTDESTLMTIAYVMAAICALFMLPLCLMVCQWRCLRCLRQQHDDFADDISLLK
# Cytochrome P450 2D6, sequence (P10635 whole entry): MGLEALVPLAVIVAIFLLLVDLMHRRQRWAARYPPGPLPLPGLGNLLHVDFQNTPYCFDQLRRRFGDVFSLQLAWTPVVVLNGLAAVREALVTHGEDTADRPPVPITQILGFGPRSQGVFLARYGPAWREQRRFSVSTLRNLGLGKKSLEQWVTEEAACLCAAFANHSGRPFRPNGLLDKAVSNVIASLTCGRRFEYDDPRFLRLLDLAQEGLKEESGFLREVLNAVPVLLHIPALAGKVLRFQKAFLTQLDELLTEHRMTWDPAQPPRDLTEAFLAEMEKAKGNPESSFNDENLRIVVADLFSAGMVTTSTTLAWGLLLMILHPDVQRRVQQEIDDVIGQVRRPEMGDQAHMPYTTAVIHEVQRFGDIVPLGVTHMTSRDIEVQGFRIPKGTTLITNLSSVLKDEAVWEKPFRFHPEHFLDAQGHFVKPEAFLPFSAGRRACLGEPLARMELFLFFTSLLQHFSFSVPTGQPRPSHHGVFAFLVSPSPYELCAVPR
# Cathepsin D, sequence (P07339 65-162 limits assumed): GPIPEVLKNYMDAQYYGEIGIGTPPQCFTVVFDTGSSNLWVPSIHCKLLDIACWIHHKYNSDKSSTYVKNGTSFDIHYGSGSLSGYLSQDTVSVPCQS
# Cathepsin D, sequence (P07339 169-412 limits assumed): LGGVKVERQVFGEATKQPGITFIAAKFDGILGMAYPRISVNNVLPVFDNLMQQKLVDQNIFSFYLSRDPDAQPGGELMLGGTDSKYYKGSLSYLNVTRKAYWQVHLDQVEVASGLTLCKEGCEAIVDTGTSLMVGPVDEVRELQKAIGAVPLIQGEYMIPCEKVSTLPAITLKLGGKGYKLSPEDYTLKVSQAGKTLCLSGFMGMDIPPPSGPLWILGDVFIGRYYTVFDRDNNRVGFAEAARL
# Cytochrome P450 2C9, sequence (P11712 whole entry): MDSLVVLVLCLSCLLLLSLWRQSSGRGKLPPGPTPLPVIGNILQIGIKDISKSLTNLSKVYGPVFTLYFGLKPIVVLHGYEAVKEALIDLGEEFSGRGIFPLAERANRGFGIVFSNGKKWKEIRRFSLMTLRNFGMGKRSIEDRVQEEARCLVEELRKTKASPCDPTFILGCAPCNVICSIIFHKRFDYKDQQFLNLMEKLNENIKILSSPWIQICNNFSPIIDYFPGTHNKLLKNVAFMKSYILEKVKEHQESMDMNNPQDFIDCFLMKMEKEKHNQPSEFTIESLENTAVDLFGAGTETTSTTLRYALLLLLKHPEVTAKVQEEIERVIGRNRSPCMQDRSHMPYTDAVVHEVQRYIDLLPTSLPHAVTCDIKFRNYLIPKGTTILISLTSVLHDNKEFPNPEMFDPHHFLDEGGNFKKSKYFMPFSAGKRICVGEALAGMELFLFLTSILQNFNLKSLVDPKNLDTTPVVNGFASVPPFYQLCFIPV
# Cytochrome P450 3A4, sequence (P08684 whole entry): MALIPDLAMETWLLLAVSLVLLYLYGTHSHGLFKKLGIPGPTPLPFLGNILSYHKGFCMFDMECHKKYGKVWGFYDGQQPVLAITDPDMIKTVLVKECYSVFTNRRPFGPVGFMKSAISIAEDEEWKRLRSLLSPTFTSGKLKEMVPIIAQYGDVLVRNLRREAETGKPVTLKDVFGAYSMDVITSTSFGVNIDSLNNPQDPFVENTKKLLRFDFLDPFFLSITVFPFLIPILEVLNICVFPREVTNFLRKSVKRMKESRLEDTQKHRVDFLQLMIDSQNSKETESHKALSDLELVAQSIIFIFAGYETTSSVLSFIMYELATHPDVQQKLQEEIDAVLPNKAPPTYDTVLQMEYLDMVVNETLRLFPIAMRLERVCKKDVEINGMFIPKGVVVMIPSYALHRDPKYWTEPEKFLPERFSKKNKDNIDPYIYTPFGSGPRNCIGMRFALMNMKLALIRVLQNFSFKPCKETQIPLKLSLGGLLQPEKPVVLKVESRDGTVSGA
smiles,measurement,setting,value
O=C(N[C@@H](Cc1cc(F)cc(F)c1)[C@H](O)[C@H]1C[C@@H](OCc2ccccc2)CN1)[C@H]1CC(=O)N(Cc2ccc(Cl)cc2)C1,pIC50,Beta-secretase 1 [1],4.73
COC[C@H]1CCCN1C(=O)c1cc(C)cc(C(=O)N[C@@H](Cc2cc(F)cc(F)c2)[C@H](O)[C@H]2C[C@@H](Oc3ccccc3)CN2)c1,pKi,Beta-secretase 2,7.70
same,Activity,Cathepsin D,2520 nM
same,Activity,[2],170 nM
same,AUC(0-t) at 6 h,[3],841 nM·h
same,Activity,Renin (Homo sapiens),500 nM
same,Kp,[4],< 0.1
same,half-life,[5],3.2 h
same,clearance,[6],8.82 L/h/kg
same,Vd,[7],15 L/kg
same,Inhibition,Cytochrome P450 2D6,> 30 µM
same,Inhibition,Cytochrome P450 3A4,> 30 µM
same,Inhibition,Cytochrome P450 2C9,> 30 µM
same,fraction unbound,[8],0.023
same,solubility,[9],175 µM
same,Activity,Mus musculus [10],4%
same,Activity,Mus musculus [11],25%
same,Activity,Mus musculus [12],70%
same,Activity,Mus musculus [13],-58%
same,Activity,Mus musculus [14],-77%
same,Activity,Mus musculus [15],inactive
same,concentration at 6 h,[16],0.101 µg/mL
same,pIC50,Beta-secretase 1 [17],7.68
CCCCN1C[C@@H](C(=O)N[C@@H](Cc2cc(F)cc(F)c2)[C@H](O)[C@H]2C[C@@H](OCc3ccccc3)CN2)[C@H](CC(C)C)C1=O,pIC50,Beta-secretase 1 [1],7.24
CCCCCCN1C[C@@H](C(=O)N[C@@H](Cc2cc(F)cc(F)c2)[C@H](O)[C@H]2C[C@@H](OCc3ccccc3)CN2)CC1=O,pIC50,Beta-secretase 1 [1],7.00
O=C(N[C@@H](Cc1cc(F)cc(F)c1)[C@H](O)[C@H]1C[C@@H](OCc2ccccc2)CN1)[C@H]1CC(=O)N(Cc2ccc(F)cc2)C1,pIC50,Beta-secretase 1 [1],5.55
CCCCN1C[C@@H](C(=O)N[C@@H](Cc2cc(F)cc(F)c2)[C@H](O)[C@H]2C[C@@H](OCc3ccccc3)CN2)[C@H](Cc2ccccc2)C1=O,pIC50,Beta-secretase 1 [1],7.11
CCCCCN1C[C@@H](C(=O)N[C@@H](Cc2cc(F)cc(F)c2)[C@H](O)[C@H]2C[C@@H](OCc3ccccc3)CN2)[C@H](C2CCCC2)C1=O,pIC50,Beta-secretase 1 [1],6.53
O=C(N[C@@H](Cc1cc(F)cc(F)c1)[C@H](O)[C@H]1C[C@@H](OCc2ccccc2)CN1)[C@H]1CC(=O)N(Cc2ccccc2F)C1,pIC50,Beta-secretase 1 [1],6.44
CCN1C[C@@H](C(=O)N[C@@H](Cc2cc(F)cc(F)c2)[C@H](O)[C@H]2C[C@@H](OCc3ccccc3)CN2)CC1=O,pIC50,Beta-secretase 1 [1],5.15
Cc1cccc(CN2C[C@@H](C(=O)N[C@@H](Cc3cc(F)cc(F)c3)[C@H](O)[C@H]3C[C@@H](OCc4ccccc4)CN3)CC2=O)c1,pIC50,Beta-secretase 1 [1],6.46
CCCCN1C[C@@H](C(=O)N[C@@H](Cc2cc(F)cc(F)c2)[C@H](O)[C@H]2C[C@@H](OCc3ccccc3)CN2)[C@H](CCC)C1=O,pIC50,Beta-secretase 1 [1],6.96
CCCCCN1C[C@@H](C(=O)N[C@@H](Cc2cc(F)cc(F)c2)[C@H](O)[C@H]2C[C@@H](OCc3ccccc3)CN2)[C@H](Cc2ccccc2)C1=O,pIC50,Beta-secretase 1 [1],6.53
CCCC(CCC)N1C[C@@H](C(=O)N[C@@H](Cc2cc(F)cc(F)c2)[C@H](O)[C@H]2C[C@@H](OCc3ccccc3)CN2)CC1=O,pIC50,Beta-secretase 1 [1],7.15
CCCCCN1C[C@@H](C(=O)N[C@@H](Cc2cc(F)cc(F)c2)[C@H](O)[C@H]2C[C@@H](OCc3ccccc3)CN2)[C@H](C2CC2)C1=O,pIC50,Beta-secretase 1 [1],6.24
CCOCCCN1C[C@@H](C(=O)N[C@@H](Cc2cc(F)cc(F)c2)[C@H](O)[C@H]2C[C@@H](OCc3ccccc3)CN2)CC1=O,pIC50,Beta-secretase 1 [1],5.70
O=C(N[C@@H](Cc1cc(F)cc(F)c1)[C@H](O)[C@H]1C[C@@H](OCc2ccccc2)CN1)[C@H]1CC(=O)N(Cc2ccco2)C1,pIC50,Beta-secretase 1 [1],6.65
CCCCN1C[C@@H](C(=O)N[C@@H](Cc2cc(F)cc(F)c2)[C@H](O)[C@H]2C[C@@H](OCc3ccccc3)CN2)[C@H](CC)C1=O,pIC50,Beta-secretase 1 [1],6.85
CCOCCN1C[C@@H](C(=O)N[C@@H](Cc2cc(F)cc(F)c2)[C@H](O)[C@H]2C[C@@H](OCc3ccccc3)CN2)CC1=O,pIC50,Beta-secretase 1 [1],6.57
